Read-outs that look alike come from different tables or passages of the source.
What was measured:
human CD38 [1] = target: T1, human CD38 (Homo sapiens, UniProt P28907); test: Competitive and slow-onset inhibition of CD38-catalyzed conversion of NGD+ to cGDPR (295 nm absorbance); assay type: biochemical; design: The soluble domain of human CD38 catalyzes the conversion of NAD^+ to cyclic-ADP-ribose; settings: for Inhibition of CD38 conversion of NGD+ to cGDPR: even at millimolar concentrations of compound; for Ki: 19° C.
T1 sequence (P28907 43-300 limits assumed): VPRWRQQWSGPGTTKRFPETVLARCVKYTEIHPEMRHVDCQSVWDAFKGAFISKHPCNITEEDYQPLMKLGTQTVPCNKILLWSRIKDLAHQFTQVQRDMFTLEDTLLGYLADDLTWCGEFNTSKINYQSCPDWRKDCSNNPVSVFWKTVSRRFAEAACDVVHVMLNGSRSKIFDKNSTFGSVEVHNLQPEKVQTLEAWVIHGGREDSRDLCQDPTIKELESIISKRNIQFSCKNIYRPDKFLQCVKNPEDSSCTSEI
Protocol: Determination of Ki and kon by competitive method. To 1 mL solutions of 50 mM potassium phosphate pH 7.2 and 100 μM NGD^+ containing, 50, 25, 12.5, and 6.25 and 0 μM inhibitor 1 was added 2 μL of 7 μM CD38. Reaction progress upon initiation by enzyme addition was monitored by measurement of […] absorbance. The initial slopes were used to determine the Ki value, and all points of the experiment were fit to the equation A(t)=vt+(b−v)(1−exp(−kt))/k+A0 where k is the observed rate constant, b is the initial rate, v is the final rate and A0 is the initial absorbance was used to evaluate kon.
Determination of Competitive Inhibition by Initial Rates: The inhibitors 1-3 were evaluated for inhibition of CD38 enzymatic activity using a spectrophotometric assay. CD38 catalyzes the conversion of NGD^+ to cyclic-GDP ribose (cGDPR, Scheme 4) and product formation can be monitored by 295 nm absorbance measurement. […] A similar reaction containing 40 μM NGD^+ at several concentrations of 2 was also performed (FIG. 3).
Slow Phase Inhibition. […] This slow phase was not due to substrate depletion and was attributable to a kinetic process leading to progressive inhibition of the enzyme. The “slow-onset” absorbance curves could be fit using the equation At=vit+(vi−vf)(1−exp(−kt))/k+A0 where At is absorbance, vi is initial velocity, vf is final velocity, t is time in s, k is the rate of the slow onset process and A0 is absorbance of the sample at initial time. These fits are shown by the solid lines in FIG. 2 and FIG. 3. The rate constant for the slow phase could be obtained from the average value of k determined from the separate fits. The value of k for 1 was determined to be 0.0042±0.001 s^−1 and the value of k for 2 was determined to be 0.0083±0.002 s^−1. The parameter k is defined as kon in Scheme 5. [drawing 22]
Calculation of Total Inhibition. […] This equation is valid for slow onset behavior inhibitors and also mechanistic based inactivators of enzymes where a slow recovery of the enzyme from chemical inactivation is present.

CD38 [2] = target: T2, CD38 (Homo sapiens, UniProt P28907); settings: comparison values for substrates; read-out: Km of substrate for CD38; cited from earlier work
T2 sequence (P28907 45-300 limits assumed): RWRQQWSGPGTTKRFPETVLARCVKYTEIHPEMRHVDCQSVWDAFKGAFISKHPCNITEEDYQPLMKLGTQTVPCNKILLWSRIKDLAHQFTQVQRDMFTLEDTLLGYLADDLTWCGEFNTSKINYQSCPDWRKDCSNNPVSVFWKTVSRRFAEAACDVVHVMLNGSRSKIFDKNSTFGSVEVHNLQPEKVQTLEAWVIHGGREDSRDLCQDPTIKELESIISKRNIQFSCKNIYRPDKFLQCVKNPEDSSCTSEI

human CD38 [3] = target: T1, human CD38; test: Radiochemical measurement of inhibitor binding (labeling of CD38 by [2'-3H] inhibitor, gel filtration and scintillation counting); design: The soluble domain of human CD38 catalyzes the conversion of NAD^+ to cyclic-ADP-ribose; settings: 25° C.; 9 μM inhibitor, 1.2 μM CD38 monomer
Protocol: Radiochemical measurement of inhibitor binding. […] Inhibitor at 9 μM with specific radioactivity of 866 cpm/nmol, was incubated with 1.2 μM CD38 (monomer) in 1 mL 50 mM potassium phosphate (pH 7.5). The reactions were started by enzyme addition and quenched by freezing with a dry ice/acetone bath at 30, 60 90, 120, 250, 500, and 1000 s. Cooled (0° C.) gel filtration columns were used to separate protein with cooled (0° C.) 10 mM potassium phosphate as eluant. The frozen fraction were quickly thawed, applied to these columns and fractions collected in 1 mL volumes over the course of several minutes. Scintillation fluid (9 mL) was then added to each 1 mL fraction and samples counted. […] The observed radioactivity was fit using the equation A(t)=A0(1−exp(−kt))+B. where A0 is activity at reaction completion, k is the observed pseudo-first order rate constant and B is the activity of the blank.
Titration of Enzyme with [2′-^3H]Inhibitor. CD38 inactivation was accomplished using a radiolabeled inhibitor to assess inhibitor interactions with the enzyme independent from inhibition of the catalytic activity. This method allows the determination of the stoichiometry of covalent labeling, and detects cooperativity at multiple sites. […] (FIG. 8) within reasonable agreement with the rate constant for inactivation in kinetic assays of inhibition (kon=0.0042 s^−1 at 19° C.). […]

CD38 [4] = settings: literature values (Sauve et al., 2000; Muller-Steffner et al., 1992); cited from earlier work
human CD38 [5] = target: T1, human CD38; test: Off-rate measurement: recovery of inhibited CD38 in excess NGD+; assay type: biochemical; design: The soluble domain of human CD38 catalyzes the conversion of NAD^+ to cyclic-ADP-ribose; settings: 19° C.
Protocol: Off-Rate Measurement. 500 nM CD38 in 50 mM potassium phosphate pH 7.2 was incubated with 15 μM inhibitor for 30 min at room temperature. 5 μL of the enzyme inhibitor solution was added to a cuvette containing 1 mL reaction of 50 mM potassium phosphate pH 7.5 containing 300 μM NGD^+ pre-chilled to 19° C. Production of […] was determined by monitoring […] absorbance. The absorbance was fit to the equation A(t)=vt+(b−v) (1−exp(−kt))k+A0 where A(t) is the absorbance, k is the rate constant of recovery, b is the initial rate, v is the final rate and A0 is the initial absorbance. A control lacking inhibitor but in all other respects identical was also run.
Recovery from Inhibition. […] The solution 295 nm absorbance is monitored spectrophotometrically to assay conversion of NGD^+ to cGDPR as a consequence of regain of CD38 catlytic activity. […] The absorbance curves with the same equation used for slow-onset: At=vit+(vi−vf)(1−exp(−kt))/k+A0 where At is absorbance, vi is initial velocity, vf is final velocity, t is time in s, k is the rate of the recovery rate constant and A0 is the absorbance of the sample at initial time. The rate constant for the recovery phase was obtained from the average value of k determined from the separate fits. The value of koff for 1 was determined to be 1.5×10^−5 s^−1 and for 2 was determined to be 2.5×10^−5 s^−1.

[6] = Solution hydrolysis (chemical stability); assay type: physicochemical
Source text: Without being bound to any particular mechanism, it is believed that the electron-contributing moiety on A stabilizes the compounds of the invention such that they are less susceptible to hydrolysis from the rest of the compound. For example, the compound β-1′-5-methyl-nicotinamide-2′-deoxyribose (established as an effective inhibitor of CD38 in Example 1) was compared with β-1′-nicotinamide-2′-deoxyribose in its ability to resist solution hydrolysis. […] This difference in chemical stability means that β-1′-nicotinamide-2′-deoxyribose is 50% depleted from solution in 2 hours, whereas β-1′-5-methyl-nicotinamide-2′-deoxyribose is not hydrolyzed by 50% until 12 hours. This improved chemical stability improves the value of the compound, since it is available for action for longer periods of time in biological systems due to resistance to hydrolytic breakdown.

human CD38 [7] = target: T1, human CD38; test: CD38-catalyzed base-exchange reaction of 2 with nicotinamide to form 1 (HPLC); assay type: biochemical; design: The soluble domain of human CD38 catalyzes the conversion of NAD^+ to cyclic-ADP-ribose
Protocol: Base-exchange reaction. […] These reactions were run separately in autosampler tubes held at 19° C. in a temperature regulated autosampler and assayed by multiinjection HPLC using 5 mM K2PO4H pH 5.0 and 2.5% MeOH as eluant. The quantity of 2 reacted and the quantity of 1 formed versus time was determined by integrations of the peaks for 1 and 2 with comparison to standards.

CD38 [8] = target: T2, CD38; settings: read-out: Apparent Km for nicotinamide rescue; CD38 inactivated by ara-F-NMN+; cited from earlier work
human CD38 [9] = target: T1, human CD38; settings: read-out: Apparent Km for nicotinamide rescue of CD38 activity; CD38 preinhibited by 2
Protocol: 10 mL CD38 (1 μM) in K2PO4H was incubated with 2 (10 μM) for 30 minutes at room temperature and subsequently placed on ice. […] To a two syringe Applied Photophysics spectrophotometer in fluorescence mode was added inhibited enzyme to one syringe and NGD^+ solution to the other. Fluorescence was used to monitor cGDPR formation and the total fluorescence curves fit using the activity recovery equation. F(t)=vt+(b−v)(1−exp(−kt))/k+F0 where k is the observed rate constant, b is the initial rate, v is the final rate and F0 is the initial absorbance.
A stopped flow, two syringe fitted spectrophotometer was used to perform the experiments. The fluorescence of cGDPR was measured as a function of time to generate curves that contain an exponential and a linear phase prior to substrate exhaustion. These curves were fit to the equation Ft=vft+(vi−vf)(1−exp(−kt))/k+F0 as previously defined.

[10] = 10 mM potassium phosphate, pH 6.5, 25° C.
[11] = 100 μM NGD+ for 1, 40 μM NGD+ for 2, 50 mM potassium phosphate pH 7.2, read-out: Ki (competitive inhibition, from initial rates)
[12] = calculated from the kinetic parameters, read-out: Ki(total) = (koff/kon)*Ki, effective dissociation constant

Compound: NC(=O)c1ccc[n+](C2CC(O)C(CO)O2)c1 (single isomer, unassigned) [α isomer of 1]
- Inhibition of CD38 conversion of NGD+ to cGDPR (human CD38 [1]): did not inhibit

Compound: Cc1cc(C(N)=O)c[n+](C2CC(O)C(CO)O2)c1 (single isomer, unassigned) [α isomer of 2]
- Inhibition of CD38 conversion of NGD+ to cGDPR (human CD38 [1]): did not inhibit

Compound: NC(=O)c1ccc[n+]([C@@H]2O[C@H](COP(=O)([O-])OP(=O)(O)OC[C@H]3O[C@@H](n4cnc5c(N)ncnc54)[C@H](O)[C@@H]3O)[C@@H](O)[C@H]2O)c1 [NAD^+, nicotinamide adenine dinucleotide]
- Km (CD38 [2]): 15 µM

Compound: NC(=O)c1ccc[n+]([C@@H]2O[C@H](COP(=O)([O-])OP(=O)(O)OC[C@H]3O[C@@H](n4cnc5c(=O)[nH]c(N)nc54)[C@H](O)[C@@H]3O)[C@@H](O)[C@H]2O)c1 [NGD^+, nicotiramide guanine dinucleotide]
- Km (CD38 [2]): 2.5 µM

Compound: NC(=O)c1ccc[n+]([C@@H]2O[C@H](COP(=O)(O)O)[C@@H](O)[C@H]2O)c1 [NMN^+]
- Km (CD38 [2]): 150 µM

Compound: [3H]C1[C@H]([n+]2cccc(C(N)=O)c2)O[C@H](CO)[C@H]1O (stereo partly shown) [[2-^3H]-1, [2′-^3H]Nicotinamide deoxyriboside]
- Rate constant of radiochemical labeling of CD38 (kchem) (human CD38 [3]): 0.01 s⁻¹

Compound: NC(=O)c1ccc[n+]([C@@H]2O[C@H](COP(=O)([O-])OP(=O)(O)OC[C@H]3O[C@@H](n4cnc5c(N)ncnc54)[C@H](O)[C@@H]3O)[C@@H](O)[C@H]2F)c1 [ara-F-NAD^+]
- Ki (CD38 [4]): 169 nM

Compound: NC(=O)c1ccc[n+]([C@@H]2O[C@H](COP(=O)(O)O)C(O)C2F)c1 (stereo partly shown) [ara-F-NMN^+]
- Ki (CD38 [4]): 61 nM

Compound: NC(=O)c1ccc[n+]([C@H]2C[C@H](O)[C@@H](CO)O2)c1 [inhibitor 1, β-nicotinamide-2′-deoxyriboside]
- koff (rate constant of recovery from inhibition) (human CD38 [5]): ~2e-05 s⁻¹
- Rate constant for solution hydrolysis [6, 10]: 9.6e-05 s⁻¹
- Time to 50% depletion from solution by hydrolysis [6]: 2 h
- Ki (human CD38 [1]; [11]): 1200 nM
- Ki (human CD38 [1]; [12]): 4.5 nM
- Rate constant of radiochemical labeling of CD38 (kchem) (human CD38 [3]): 0.01 s⁻¹

Compound: Cc1cc(C(N)=O)c[n+]([C@H]2C[C@H](O)[C@@H](CO)O2)c1 [inhibitor 2, β-5-methyl-nicotinamide-2′-deoxyriboside]
- kcat of base exchange (2 to 1) (human CD38 [7]; 75 μM 2, 1 μM CD38, nicotinamide 0-40 mM, 19° C.): 0.007 s⁻¹
- koff (rate constant of recovery from inhibition) (human CD38 [5]): ~2e-05 s⁻¹
- Decrease in the rate of hydrolysis versus β-1′-nicotinamide-2′-deoxyribose (factor) [6, 10]: 6
- Rate constant for solution hydrolysis [6, 10]: 1.5e-05 s⁻¹
- Time to 50% depletion from solution by hydrolysis [6]: 12 h
- Ki (human CD38 [1]; [11]): 4000 ± 500 nM
- Ki (human CD38 [1]; [12]): 12.5 nM

Compound: OC[C@H]1O[C@@H]([n+]2ccccc2)C[C@@H]1O [inhibitor 3, β-pyridyl-deoxyriboside]
- Inhibition of CD38 conversion of NGD+ to cGDPR (human CD38 [1]): did not inhibit

Compound: NC(=O)c1cccnc1 [nicotinamide]
- Km (human CD38 [7]; read-out: Km of nicotinamide for steady state base exchange, 75 μM 2, 1 μM CD38, 19° C.): 920 µM
- Km (CD38 [8]): 17 mM
- Km (human CD38 [9]): 2.4 mM

From patent US20060089318A1, “Inhibitors of adp-ribosyl transferases, cyclases, and hydrolases” (priority 2002, published 2006)
